# Results as given in patent US20220047567A1, “METHODS FOR THE TREATMENT OF NEUROFIBROMATOSIS” (INSERM (INSTITUT NATIONAL DE LA SANTÉ ET DE LA RECHERCHE …, priority 2018, published 2022).
# Entries after “also recorded” stand apart in the source; their conditions may differ.
# What was measured:
# [1] = test system: PIK3CA pathway (phosphorylation of AKT and S6RP) in NF1−/− cells; assay: Western blot of AKT and S6RP phosphorylation in immortalized NF1−/− cells; format: cell-based; conditions: after 12 h of exposure
# Description: (§1) FIG. 1: NF1+/+ and NF1−/− cells were exposed to either DMSO, BYL719 at different concentrations […], selumetinib at different concentrations (1 and 10 mmol·L−1) or a combination of BYL719 1 mmol·L−1 and selumetinib 10 mmol·L−1 or BYL719 1 mmol·L−1 and selumetinib 10 mmol·L−1 and IPA3. […] The addition of BYL719 to either selumetinib or selumetinib and IPA3 increases cells apoptosis. All data are shown as the means±s.e.m. ANOVA followed by Tukey-Kramer test. White column: NF1+/+, black column: NF1−/−.
# (§2) Inventors first checked in immortalized NF1−/− cells if the PIK3CA pathway was recruited (FIGS. 1A, 1B and 1C). […] They then treated the cells with BYL719. […] They then exposed the NF1−/− cells to different dose of selumetinib, a MAP kinase inhibitor, drug that gave encouraging results in some patients with neurofibromatosis.
# [2] = test system: NF1−/− cells; assay: Apoptosis assessed by PARP cleavage in NF1−/− cells; format: cell-based; conditions: different doses, FIG. 1C
# Description: as §1, §2
compound,measurement,setting,value
Cc1nc(NC(=O)N2CCC[C@H]2C(N)=O)sc1-c1ccnc(C(C)(C)C(F)(F)F)c1 [BYL719],phosphorylation of AKT,[1]; FIG. 1A,efficiently blocks; also recorded: efficiently blocking
same,phosphorylation of S6RP,[1]; FIG. 1B,efficiently blocks; also recorded: efficiently blocking
same,apoptosis as assessed by PARP cleavage,[2],induces apoptosis; also recorded: increased apoptosis as assessed by PARP cleavage in a dose dependent manner
